# Values of other authors, collected in patent publication US20240226372A1, “HYDROPHILIC POLY(THIOKETAL) URETHANE SCAFFOLDS AND METHODS OF USE THEREOF” (Vanderbilt University, priority 2021, published 2024).
# Test system: osteoblasts
# Design: dose or concentration left out as unconfirmed
# Details: 21 antibiotics
smiles,measurement,value
CN[C@H](CC(C)C)C(=O)N[C@H]1C(=O)N[C@@H](CC(N)=O)C(=O)N[C@H]2C(=O)N[C@H]3C(=O)N[C@H](C(=O)N[C@H](C(=O)O)c4cc(O)cc(O)c4-c4cc3ccc4O)[C@H](O)c3ccc(c(Cl)c3)Oc3cc2cc(c3O[C@@H]2O[C@H](CO)[C@@H](O)[C@H](O)[C@H]2O[C@H]2C[C@](C)(N)[C@H](O)[C@H](C)O2)Oc2ccc(cc2Cl)[C@H]1O [vancomycin],effects on osteoblast function,least detrimental effects
